Source: the supplement of paper PMC11451515

Test system: P12-Ichikawa
Assay: cell viability relative to DMSO control; higher = less cytotoxic
Conditions: 48 h
Method in brief: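 Viability, reported as a per-plate percentage of DMSO wells with cell-free wells as background, came from CellTiter-Glo One luminescence. Reading took place after 48 h at 37°C. Before that, NOMO1 or SEM (500 cells/well) or P12-Ichikawa (1000 cells/well) leukemia cells, adapted for at least four passages in each medium, were seeded in 1536-well plates (5 μl) and pin-dosed with library compounds in DMSO, 47 μM to 0.79 nM over 11 threefold points.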

[1] = HPLM + 10% dialyzed FBS, 0.000781 µM
[2] = HPLM + 10% dialyzed FBS, 0.00234 µM
[3] = HPLM + 10% dialyzed FBS, 0.00702 µM
[4] = HPLM + 10% dialyzed FBS, 0.0211 µM
[5] = HPLM + 10% dialyzed FBS, 0.0632 µM
[6] = HPLM + 10% dialyzed FBS, 0.19 µM
[7] = HPLM + 10% dialyzed FBS, 0.569 µM
[8] = HPLM + 10% dialyzed FBS, 1.71 µM
[9] = HPLM + 10% dialyzed FBS, 5.12 µM
[10] = HPLM + 10% dialyzed FBS, 15.4 µM
[11] = HPLM + 10% dialyzed FBS, 46.1 µM
[12] = RPMI 5 mM glucose + 10% FBS, 0.000781 µM
[13] = RPMI 5 mM glucose + 10% FBS, 0.00234 µM
[14] = RPMI 5 mM glucose + 10% FBS, 0.00702 µM
[15] = RPMI 5 mM glucose + 10% FBS, 0.0211 µM
[16] = RPMI 5 mM glucose + 10% FBS, 0.0632 µM
[17] = RPMI 5 mM glucose + 10% FBS, 0.19 µM
[18] = RPMI 5 mM glucose + 10% FBS, 0.569 µM
[19] = RPMI 5 mM glucose + 10% FBS, 1.71 µM
[20] = RPMI 5 mM glucose + 10% FBS, 5.12 µM
[21] = RPMI 5 mM glucose + 10% FBS, 15.4 µM
[22] = RPMI 5 mM glucose + 10% FBS, 46.1 µM
[23] = RPMI 5 mM glucose + 10% dialyzed FBS, 0.000781 µM
[24] = RPMI 5 mM glucose + 10% dialyzed FBS, 0.00234 µM
[25] = RPMI 5 mM glucose + 10% dialyzed FBS, 0.00702 µM
[26] = RPMI 5 mM glucose + 10% dialyzed FBS, 0.0211 µM
[27] = RPMI 5 mM glucose + 10% dialyzed FBS, 0.0632 µM
[28] = RPMI 5 mM glucose + 10% dialyzed FBS, 0.19 µM
[29] = RPMI 5 mM glucose + 10% dialyzed FBS, 0.569 µM
[30] = RPMI 5 mM glucose + 10% dialyzed FBS, 1.71 µM
[31] = RPMI 5 mM glucose + 10% dialyzed FBS, 5.12 µM
[32] = RPMI 5 mM glucose + 10% dialyzed FBS, 15.4 µM
[33] = RPMI 5 mM glucose + 10% dialyzed FBS, 46.1 µM

Row | Compound | cell viability [1] [%] | cell viability [2] [%] | cell viability [3] [%] | cell viability [4] [%] | cell viability [5] [%] | cell viability [6] [%] | cell viability [7] [%] | cell viability [8] [%] | cell viability [9] [%] | cell viability [10] [%] | cell viability [11] [%] | cell viability [12] [%] | cell viability [13] [%] | cell viability [14] [%] | cell viability [15] [%] | cell viability [16] [%] | cell viability [17] [%] | cell viability [18] [%] | cell viability [19] [%] | cell viability [20] [%] | cell viability [21] [%] | cell viability [22] [%] | cell viability [23] [%] | cell viability [24] [%] | cell viability [25] [%] | cell viability [26] [%] | cell viability [27] [%] | cell viability [28] [%] | cell viability [29] [%] | cell viability [30] [%] | cell viability [31] [%] | cell viability [32] [%] | cell viability [33] [%]
1 | CCOC(=O)C(C)OC1=CC=CC2=C1\C=C/N(CC(=O)NC3=CC=C4OCCOC4=C3)C2=O (configuration not stated) | 89.3 | 97.6 | 97.9 | 53.9 | 101 | 106 | 95.5 | 97.5 | 90.5 | 101 | 108 | 89.6 | 97.6 | 97.9 | 91.7 | 98.6 | 103 | 103 | 91.2 | 87.2 | 111 | 108 | 88.6 | 88.2 | 91.5 | 88.5 | 85.7 | 98.2 | 92.2 | 89.8 | 90.4 | 92.5 | 101
2 | COC1=C(OCCCN2CCOCC2)C=CC\3=C1/N=C(/NC(=O)C4=CN=C(N)N=C4)N5CC/N=C35 | 110 | 97.6 | 99.5 | 100 | 96 | 85.8 | 78.2 | 73.7 | 70.1 | 60.4 | 60.8 | 87.2 | 95.4 | 90.2 | 91.2 | 86.9 | 74.7 | 62.5 | 56.8 | 56.3 | 47.1 | 42 | 87.8 | 95.3 | 98.3 | 99.1 | 87.3 | 82.5 | 67.4 | 62.6 | 58.7 | 49.1 | 45.8
3 | CC[C@H]1OC(=O)[C@H](C)C(=O)[C@H](C)[C@@H](O[C@H]2O[C@H](C)C[C@H](N(C)C)[C@H]2O)[C@](C)(OC)C[C@@H](C)C(=O)[C@H](C)[C@H]2N(CCCCn3cnc(-c4cccnc4)c3)C(=O)O[C@]12C | 102 | 119 | 98.3 | 115 | 120 | 116 | 99.1 | 98.3 | 104 | 96.1 | 96.1 | 103 | 109 | 111 | 115 | 122 | 104 | 88.3 | 89.5 | 103 | 105 | 96.5 | 111 | 122 | 140 | 147 | 130 | 82 | 63.3 | 89.9 | 114 | 92.6 | 97.5
4 | C[C@@H](CN1CC(=O)NC(=O)C1)N1CC(=O)NC(=O)C1 | 104 | 111 | 110 | 109 | 108 | 75 | 47 | 11.5 | 13.7 | 4.45 | 2.49 | 101 | 104 | 98.5 | 116 | 111 | 97.7 | 80.7 | 18.1 | 18.9 | 5.1 | 4.44 | 94.6 | 108 | 96.8 | 110 | 105 | 84 | 61.3 | 19.7 | 20 | 6.43 | 4.62
5 | O=C(O)c1cc(/N=N/c2ccc([S+](=O)([O-])Nc3ccccn3)cc2)ccc1O | 108 | 107 | 112 | 102 | 113 | 116 | 116 | 107 | 106 | 98.6 | 92.3 | 108 | 111 | 105 | 110 | 119 | 115 | 114 | 122 | 113 | 111 | 108 | 103 | 114 | 110 | 102 | 120 | 114 | 119 | 120 | 110 | 102 | 102
6 | NC[C@H]1O[C@H](O[C@@H]2[C@H](O)[C@@H](O[C@H]3O[C@H](CO)[C@@H](O)[C@H](N)[C@H]3O)[C@H](N)C[C@@H]2N)[C@H](O)[C@@H](O)[C@@H]1O | 126 | 124 | 124 | 107 | 120 | 121 | 117 | 121 | 112 | 104 | 107 | – | – | – | – | – | – | – | – | – | – | – | – | – | – | – | – | – | – | – | – | – | –
7 | COc1cc[nH]c2ncc(C(=O)C(=O)N3CCN(C(=O)c4ccccc4)C[C@H]3C)c1-2 | 114 | 112 | 118 | 111 | 112 | 109 | 108 | 101 | 106 | 103 | 102 | 114 | 118 | 119 | 117 | 117 | 117 | 122 | 111 | 107 | 111 | 97.5 | 105 | 109 | 96.9 | 110 | 101 | 99.1 | 116 | 103 | 99.4 | 99.5 | 103
8 | Cc1ccc([S+](=O)([O-])OCC(=O)Nc2ccc(C(=O)O)c(O)c2)cc1 | 106 | 117 | 122 | 126 | 126 | 133 | 120 | 136 | 121 | 102 | 8.9 | – | – | – | – | – | – | – | – | – | – | – | – | – | – | – | – | – | – | – | – | – | –
9 | COC1=CC=C(C(=C1)OC(C)C)C/2=N/[C@@H]([C@@H](N2C(=O)N3CCNC(=O)C3)C4=CC=C(Cl)C=C4)C5=CC=C(Cl)C=C5 | 108 | 113 | 115 | 108 | 109 | 111 | 108 | 102 | 76 | 37.1 | 12.1 | 122 | 125 | 127 | 119 | 116 | 118 | 106 | 111 | 97.2 | 52 | 49.6 | 122 | 119 | 116 | 117 | 125 | 113 | 112 | 110 | 88.3 | 41.5 | 27.8
10 | Cc1coc2c1C(=O)C(=O)c1c-2ccc2c1CCCC2(C)C | 103 | 106 | 109 | 116 | 106 | 104 | 93 | 93.2 | 94 | 94.8 | 99.8 | 96.6 | 98.3 | 97.9 | 95.3 | 91 | 92.1 | 95.4 | 88.6 | 91.5 | 89.4 | 87.9 | 95.5 | 97.8 | 103 | 93.7 | 96.5 | 87.7 | 87.3 | 87.8 | 83.4 | 84.7 | 92.2
11 | COc1ccc2c(c1)CN(C)CC2c1ccc(Cl)c(Cl)c1 (configuration not stated) | 128 | 121 | 125 | 125 | 134 | 133 | 125 | 123 | 133 | 131 | 116 | – | – | – | – | – | – | – | – | – | – | – | – | – | – | – | – | – | – | – | – | – | –
12 | CC[C@@H]([C@H](C)O)n1ncn(-c2ccc(N3CCN(c4ccc(OCC5CO[C@@](Cn6cncn6)(c6ccc(F)cc6F)C5)cc4)CC3)cc2)c1=O (some centres not stated) | 102 | 99.8 | 101 | 96.3 | 98.3 | 91.1 | 100 | 92.2 | 90.8 | 84.9 | 85.1 | 101 | 102 | 104 | 97.8 | 95 | 102 | 92.3 | 91.1 | 92.1 | 88.3 | 82.6 | 87.2 | 98 | 95.1 | 97.9 | 90.9 | 87.7 | 85.7 | 89.8 | 85.1 | 83.5 | 75
13 | NC(=O)c1ccc(N(C(N)=O)c2c(F)cccc2F)nc1-c1ccc(F)cc1F | 101 | 101 | 105 | 101 | 107 | 102 | 106 | 101 | 108 | 95.3 | 104 | 101 | 97.1 | 100 | 98.7 | 108 | 94.7 | 109 | 95.6 | 98.5 | 88.7 | 96.3 | 94.9 | 96.1 | 99 | 102 | 100 | 92.1 | 91 | 92.7 | 91.2 | 87.5 | 88.6
14 | COC(=O)c1ccc2c(c1)NC(=O)/C2=C(\Nc1ccc(N(C)C(=O)CN2CCN(C)CC2)cc1)c1ccccc1 | 105 | 109 | 102 | 101 | 92.6 | 101 | 102 | 102 | 98.6 | 95.9 | 96.9 | 106 | 102 | 96.1 | 86 | 101 | 104 | 101 | 94 | 102 | 97.3 | 89.3 | 102 | 104 | 104 | 90.2 | 101 | 99 | 95.6 | 93.4 | 99.4 | 86.2 | 93.5
15 | CCCCOCCOc1nc(-c2ccc(C(=O)O)c(F)c2)sc1C | 119 | 116 | 112 | 116 | 119 | 112 | 115 | 112 | 107 | 94.5 | 110 | 124 | 117 | 118 | 120 | 120 | 110 | 108 | 100 | 99.7 | 86.5 | 97.6 | 123 | 127 | 124 | 121 | 116 | 114 | 118 | 105 | 111 | 85 | 113
16 | COc1cccc2c1C(=O)c1c(O)c3c(c(O)c1C2=O)C[C@@](O)(C(=O)CO)C[C@@H]3O[C@H]1C[C@H](N)[C@H](O)[C@H](C)O1 | 115 | 114 | 112 | 117 | 116 | 107 | 98.6 | 58.2 | 7.45 | 5.63 | 11.9 | 113 | 116 | 119 | 114 | 113 | 108 | 93.8 | 44.7 | 7.04 | 5.82 | 8.62 | 109 | 114 | 108 | 107 | 117 | 106 | 92.2 | 67 | 7.81 | 7.58 | 13
